Laboratory results taken from patent US20230065158A1, “OXABICYCLOHEPTANES FOR TREATMENT OF SMALL CELL LUNG CANCER” (Lixte Biotechnology, Inc., priority 2021, published 2023).
Read-outs that look alike come from different tables or passages of the source.

Experiments:
H69 cells [1] = assay: BiOLOG Phenotype Microarray carbon substrate utilization; assay type: cell-based; settings: LB100 20 μM overnight
Excerpt: FIGS. 4A-4F depict a reactome pathway analysis of PamGene PTKs and STKs after LB-100 treatment of H524 cells and Biolog phenotype MicroArray. […] Table includes 10 carbon sources affected by LB-100 (n=3). […] P<0.001 (***) for control (untreated cells) vs. LB-100. FIG. 4D: Amplex Red Glucose/Oxidase assay kit was used to measure glucose level in cell culture media. […] Glucose concentration detected in initial medium and counted as 100%. Subtracting final medium level of glucose from initial glucose medium concentration yielded % glucose in the medium with cells (n=3). Effect of LB-100 on MET phosphorylation. FIG. 4E: H524 and H69 cells were treated overnight with LB-100 (H524—5 μM and H69—20 μM) following by stimulation with 100 ng/ml HGF in 10 min. Cells were collected and lysed for WB analysis with pMET and total MET antibody. Pan-actin was used as loading control (n=3). FIG. 4F: H524 cell lysates (control, LB-100, carboplatin and combination (LB-100/carboplatin) were analyzed by western blots to check phosphorylation status of MET at Ser985 and Tyr1234/1235. Actin was used as a loading control (n=3). […]
Phenotype Microarrays (PMs) use a patented redox chemistry, employing cell respiration as a universal reporter. […] The redox assay provides for both amplification and precise quantitation of phenotypes. […]

H69 cells [2] = assay: Cell Counting Kit-8 cytotoxicity and drug combination, H69
Experimental: A Mann-Whitney U test was used for comparison between the normal and SCLC samples. FIG. 1B: IHC for PP2A was conducted on TMA tissue sections and images were captured at 4× or 20× using a 3D-Histech PANNORAMIC SCAN whole slide scanner (3D-Histech, Budapest, Hungary). […] TMAs were scored in normal (n=24) and tumor (n=79) cores on a scale from 0 (no staining/no protein expression) to 3+(strong staining/high protein expression). FIG. 1C: Summary bar graph of the average PP2A subunit staining. IHC staining intensity of normal and tumor cores. […] FIG. 1D: In order to compare the expression of PP2A subunits A and C, cell lysates from seven SCLC cell lines and HBEC 3KT (non-malignant cell line) were subjected to western blotting. FIG. 1E: PP2A activity was determined using a serine/threonine phosphatase activity assay (Millipore) after 24 h exposure to cantharidin (10 μM) and LB-100 (5 μM). […] The Cell Counting Kit-8 assay detected cell H524 and H69 cell viability. […] FIGS. 1I-1K: Graphs depict the mean+SEM of percent viability for cells (n=3). Colony formation assays were used to count the ability of H524 (FIGS. 11 and 1J) and H69 (FIGS. 1K and 1L) cells to form colonies. […] Representative images of colonies at 4× are shown under the graph (n=2).*p<0.05; **, p<0.01; *** p<0.001; ****, p<0.0001. Experiments were repeated in triplicate and representative data are shown.

C[NH+]1CCN(C(=O)C2C(C(=O)O)[C@H]3CC[C@@H]2O3)CC1 (stereo in doubt) [LB-100, 3-[(4-Methylpiperazin-1-yl)carbonyl]-7-oxabicyclo[2.2.1]heptane-2-carboxylic acid]
reduction of glycogen consumption (H69 cells [1]): more than 2.7 fold
reduction of α-D-Glucose consumption (H69 cells [1]): more than 6 fold
IC50 (H69 cells [2]; Homo sapiens, NCI-H69, 72 h, read-out: Cytotoxicity IC50, H69, 72 hours): ~20 µM
IC50 (H69 cells [2]; human, 72 h): 22.6 µM
